Test results published in patent publication US20250221966A1, “RXFP1 AGONISTS” (BRISTOL-MYERS SQUIBB COMPANY, priority 2021, published 2025).

Molecular target: T1, human RXFP1 (Homo sapiens, UniProt Q9HBX9)
T1 construct: expressed in transfected cells
T1 sequence (Q9HBX9 1-757): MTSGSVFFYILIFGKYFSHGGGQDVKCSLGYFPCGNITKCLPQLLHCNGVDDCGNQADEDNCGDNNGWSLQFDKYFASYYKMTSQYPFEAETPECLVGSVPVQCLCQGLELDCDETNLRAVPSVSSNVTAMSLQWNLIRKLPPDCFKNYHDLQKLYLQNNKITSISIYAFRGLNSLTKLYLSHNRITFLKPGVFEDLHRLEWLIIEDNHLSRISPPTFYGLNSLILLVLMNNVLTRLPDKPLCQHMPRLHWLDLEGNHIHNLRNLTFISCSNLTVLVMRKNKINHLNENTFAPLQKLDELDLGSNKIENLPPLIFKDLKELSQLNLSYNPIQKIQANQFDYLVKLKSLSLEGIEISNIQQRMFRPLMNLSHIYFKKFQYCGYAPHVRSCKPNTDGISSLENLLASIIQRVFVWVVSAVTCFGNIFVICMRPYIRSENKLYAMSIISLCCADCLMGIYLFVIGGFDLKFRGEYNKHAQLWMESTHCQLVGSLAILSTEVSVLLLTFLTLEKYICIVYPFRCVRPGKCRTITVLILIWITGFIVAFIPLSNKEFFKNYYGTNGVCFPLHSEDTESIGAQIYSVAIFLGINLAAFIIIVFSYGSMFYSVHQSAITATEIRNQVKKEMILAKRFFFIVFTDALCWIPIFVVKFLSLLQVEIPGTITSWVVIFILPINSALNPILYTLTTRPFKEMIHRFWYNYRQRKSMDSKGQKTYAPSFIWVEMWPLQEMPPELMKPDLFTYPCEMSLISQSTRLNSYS
Assay: RXFP1 cAMP assay (hRXFP1 HEK293 cAMP assay, HTRF)
Type: cell-based
Details: HEK293 cells stably expressing human RXFP1, 30 min at room temperature, read-out: cAMP hRXFP1 HEK293 Assay EC50
In short: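 HEK293 cells stably expressing human RXFP1 (1500 cells/well) in HBSS/20 mM HEPES/0.05% BSA/0.5 mM IBMX. Compounds were tested at 0.010 nM–50 μM final (2% DMSO) for 30 min at room temperature. cAMP was measured by HTRF and values derived by 4-parameter logistic fit.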

## COc1ccc(-c2ccc(C(CC(=O)O)C(F)(F)F)cc2F)cc1C(=O)N[C@H]1[C@@H](C(=O)Nc2ccc(F)c(C(F)(F)F)c2)[C@H]2CC[C@@H]1/C2=C\C1CC1 (some centres unmarked) [compound 884]
  EC50: 1 nM

## COc1c(F)cc(C2=NOC3CC(CO)CC23)cc1C(=O)N[C@H]1[C@@H](C(=O)N[C@H](C)C2(C)CC2)[C@H]2CC[C@@H]1/C2=C\CC(O)C(F)(F)F (some centres unmarked) [compound 821]
  EC50: 2.5 nM

## COc1ccc(-c2cc(C(COC(=O)NC3CCC3)C(F)(F)F)ccc2F)cc1C(=O)N[C@H]1[C@@H](C(=O)Nc2ccc(F)c(C(F)(F)F)c2)[C@H]2CC[C@@H]1/C2=C\C1CC1 (some centres unmarked) [compound 878]
  EC50: 5.1 nM

## COc1ccc(C2=NOC3COCC23)cc1C(=O)N[C@H]1[C@@H](C(=O)NC(C)C2CCC2)[C@H]2CC[C@@H]1/C2=C\C1CC1 (single isomer, unassigned) [compound 683]
  EC50: 626 nM

## COCC1(CNC(=O)[C@@H]2[C@H](NC(=O)c3cc(C4=NOC5COCC45)ccc3OC)[C@@H]3CC[C@H]2/C3=C/C2CC2)CC1 (some centres unmarked) [compound 701]
  EC50: 1090 nM

## C=C/C=C1\C2CCC1[C@H](C(=O)Nc1ccc(F)c(C(F)(F)F)c1)[C@@H]2NC(=O)c1cc(-c2cc(C(=O)NC)ccc2F)ccc1OC (some centres unmarked) [compound 164]
  EC50: 14 nM

## CC12CC(NC(=O)[C@@H]3[C@H](NC(=O)c4cc(C5=NOC6CC(CO)CC56)cc(F)c4OCC4CC4)[C@@H]4CC[C@H]3/C4=C/C3CC3)(C1)C2 (some centres unmarked) [compound 764]
  EC50: 2.3 nM

## COc1ccc(C2=NO[C@@H]3C[C@H](C(F)(F)F)CN23)cc1C(=O)N[C@H]1[C@@H](C(=O)Nc2ccc(F)c(C(F)(F)F)c2)[C@H]2CC[C@@H]1/C2=C\C1CC1 [compound 847]
  EC50: 2.5 nM

## COc1ccc(-c2cc(C3=NOC(C(=O)O)C3)ccc2F)cc1C(=O)N[C@H]1[C@@H](C(=O)Nc2ccc(F)c(C(F)(F)F)c2)[C@H]2CC[C@@H]1/C2=C\C1CCCC1 (some centres unmarked) [compound 946]
  EC50: 0.9 nM

## COc1ccc(C2=NOC3(CCNC3)C2)cc1C(=O)N[C@H]1[C@@H](C(=O)Nc2ccc(F)c(C(F)(F)F)c2)[C@H]2CC[C@@H]1/C2=C\C1CC1 (some centres unmarked) [compound 593]
  EC50: 89.8 nM

## COc1ccc(C2=NOC(C(=O)O)C2)cc1C(=O)N[C@@H]1C2CCC(/C2=C/C2CCC2)[C@@H]1C(=O)Nc1ccc(F)c(C(F)(F)F)c1 (some centres unmarked) [compound 387]
  EC50: 11 nM

## COc1ccc(C2=NOC(C3(O)CCCC3)C2)cc1C(=O)N[C@H]1[C@@H](C(=O)Nc2ccc(F)c(C(F)(F)F)c2)[C@H]2CC[C@@H]1/C2=C\C1CC1 (single isomer, unassigned) [compound 488]
  EC50: 8.2 nM

## CNC(=O)OC(c1ccc(F)c(-c2ccc(OC)c(C(=O)N[C@@H]3C4CCC(/C4=C/C4CC4)[C@@H]3C(=O)Nc3ccc(F)c(C(F)(F)F)c3)c2)c1)C(F)(F)F (some centres unmarked) [compound 217]
  EC50: 2 nM

## COc1c(F)cc(C2=NOC3CC(CO)CC23)cc1C(=O)N[C@H]1[C@@H](C(=O)N[C@H](C)C2(C)CC(F)(F)C2)[C@H]2CC[C@@H]1/C2=C\C1CC1 (some centres unmarked) [compound 870]
  EC50: 2.2 nM

## COc1ccc(C2=NOC3CC(C(O)C(F)(F)F)CC23)cc1C(=O)N[C@H]1[C@@H](C(=O)Nc2ccc(F)c(C(F)(F)F)c2)[C@H]2CC[C@@H]1/C2=C\C1CC1 (some centres unmarked) [compound 853]
  EC50: 3.6 nM

## COc1ccc(C2=NOC3COCC23)cc1C(=O)N[C@H]1[C@@H](C(=O)NC2Cc3ccccc3C2)[C@H]2CC[C@@H]1/C2=C\C1CC1 (some centres unmarked) [compound 610]
  EC50: 132 nM

## COc1ccc(N2CCCC(CO)C2)cc1C(=O)NC1C2CCC(/C2=C/C(F)(F)F)C1C(=O)Nc1ccc(F)c(C(F)(F)F)c1 (stereo in doubt) [Example 329, (1R,2R,3R,4R,Z)—N-(4-fluoro-3-(trifluoromethyl)phenyl)-3-(5-(3-(hydroxymethyl)piperidin-1-yl)-2-methoxybenzamido)-7-(2,2,2-trifluoroethylidene)bicyclo[2.2.1]heptane-2-carboxamide]
  EC50: 4810 nM

## COc1ccc(C2=NOC3CCCCCCC23)cc1C(=O)N[C@H]1[C@@H](C(=O)Nc2ccc(F)c(C(F)(F)F)c2)[C@H]2CC[C@@H]1/C2=C\C1CC1 (some centres unmarked) [compound 537]
  EC50: 26 nM

## COc1cc(F)c(F)cc1C(=O)N[C@@H]1C2CCC(C2=C(C)C)[C@]1(F)C(=O)Nc1ccc(F)c(C(F)(F)F)c1 (some centres unmarked) [Example 51]
  EC50: 790 nM

## COc1ccc(-c2cc(C(OC(=O)NC3CCCC3)C(F)(F)F)ccc2F)cc1C(=O)N[C@@H]1C2CCC(/C2=C/C2CC2)[C@@H]1C(=O)Nc1ccc(F)c(C(F)(F)F)c1 (some centres unmarked) [compound 219]
  EC50: 3 nM

## C[C@@H](NC(=O)[C@@H]1[C@H](NC(=O)c2cc(C3=NOC4CC(CO)CC34)cc(F)c2OCC2CC2)[C@@H]2CC[C@H]1/C2=C/C1CC1)C1(C)CC1 (some centres unmarked) [compound 758]
  EC50: 0.9 nM

## COc1ccc(C2=NOC3CCCC23)cc1C(=O)N[C@@H]1C2CCC(/C2=C/C2CC2)[C@@H]1C(=O)Nc1ccc(F)c(C(F)(F)F)c1 (stereo partly drawn) [Example 439, (1R,2S,3R,4R,Z)-7-(cyclopropylmethylene)-N-(4-fluoro-3-(trifluoromethyl)phenyl)-3-(2-methoxy-5-(3a,5,6,6a-tetrahydro-4H-cyclopenta[d]isoxazol-3-yl)benzamido)bicyclo[2.2.1]heptane-2-carboxamide]
  EC50: 30 nM

## COc1ccc(C2=NO[C@H]3COC[C@@H]23)cc1C(=O)N[C@H]1[C@@H](C(=O)N[C@H](C)C2(C)CC2)[C@H]2CC[C@@H]1/C2=C\C1CC(F)(F)C1 [compound 842]
  EC50: 4.9 nM

## COc1ccc(C2=NOC3COCC23)cc1C(=O)N[C@H]1[C@@H](C(=O)NC2(C#N)CCCC2)[C@H]2CC[C@@H]1/C2=C\C1CC1 (some centres unmarked) [compound 476]
  EC50: 6.1 nM

## COc1ccc(C2=NO[C@@H]3C[C@H](CO)CN23)cc1C(=O)N[C@H]1[C@@H](C(=O)Nc2ccc(F)c(C(F)(F)F)c2)[C@H]2CC[C@@H]1/C2=C\C1CC1 [compound 846]
  EC50: 1.8 nM

## COc1ccc(C2=NOC3COCC23)cc1C(=O)N[C@H]1[C@@H](C(=O)NCCc2ccccc2C)[C@H]2CC[C@@H]1/C2=C\C1CC1 (some centres unmarked) [compound 520]
  EC50: 19.3 nM

## O=C(N[C@H]1[C@@H](C(=O)NC23CC(F)(C2)C3)[C@H]2CC[C@@H]1/C2=C\C1CC1)c1cc(C2=NOC3CC(CO)CC23)cc(F)c1OCC1CC1 (some centres unmarked) [compound 763]
  EC50: 2.1 nM

## COc1ccc(C2=NO[C@H]3C[C@H](CO)C[C@@H]23)cc1C(=O)N[C@H]1[C@@H](C(=O)N[C@H](C)C2(C)CC2)[C@H]2CC[C@@H]1/C2=C\C1CC(F)(F)C1 [compound 823]
  EC50: 2.6 nM

## COc1ncc(-c2ccc(OC)c(C(=O)N[C@H]3[C@@H](C(=O)Nc4ccc(F)c(C(F)(F)F)c4)[C@H]4CC[C@@H]3C4=C(C)C)c2)cn1 [compound 88]
  EC50: 190 nM

## COc1ccc(C2=NOC3COCC23)cc1C(=O)N[C@H]1[C@@H](C(=O)N[C@H](C)C(C)(C)C)[C@H]2CC[C@@H]1/C2=C\C1CC1 (some centres unmarked) [compound 485]
  EC50: 7.8 nM

## COc1ccc(C2=NOC3C(O)CC(O)C23)cc1C(=O)N[C@H]1[C@@H](C(=O)Nc2ccc(F)c(C(F)(F)F)c2)[C@H]2CC[C@@H]1/C2=C\C1CC1 (stereo partly drawn) [Example 413, (1R,2S,3R,4R,Z)-7-(cyclopropylmethylene)-3-(5-(4,6-dihydroxy-3a,5,6,6a-tetrahydro-4H-cyclopenta[d]isoxazol-3-yl)-2-methoxybenzamido)-N-(4-fluoro-3-(trifluoromethyl)phenyl)bicyclo[2.2.1]heptane-2-carboxamide]
  EC50: 39 nM

## COc1cc(C(=O)N[C@H]2[C@@H](C(=O)Nc3ccc(F)c(C(F)(F)F)c3)[C@H]3CC[C@@H]2/C3=C\C2CC2)cc(C2=NOC3COCC23)c1 (single isomer, unassigned) [compound 696]
  EC50: 966 nM
